Earlier results in patent publication US11974997B2, “RORgamma modulators and uses thereof” (Genfit, priority 2017, dated 2024).

Tests used:
[1] = administered by injection; cited from earlier work
[2] = administered by injection; cited from earlier work; remark: listed apart in the source

| SMILES | efficacy in psoriasis model [1] | efficacy in multiple sclerosis model [2] |
| --- | --- | --- |
| Cc1ccc([C@@H](NC(=O)Cc2ccc3oc([C@@H](O)c4c(C)noc4C)cc3c2)c2ccccc2)c(C)c1 [TMP778] | efficacious |  |
| CC(=O)Nc1nc(C)c(S(=O)(=O)Nc2ccc(C(O)(C(F)(F)F)C(F)(F)F)cc2)s1 [SR1001] |  | efficacious |
